Values quoted from earlier work as cited in paper PMC12311865, “In Vitro Evaluation of the Potential Interactions of Zearalenone-14-sulfate and Zearalenone-14-glucuronide with Human Cytochrome P450 Enzymes, Organic Anion Transporting Polypeptides, and ATP-Binding Cassette Multidrug Transporters” (ACS Omega, 2025).

Assays:
[1] = biological target: T1, OATP1B1 (Homo sapiens, UniProt Q9Y6L6); parameters: method as in earlier report; conditions: same experimental model; ref earlier report; cited from earlier work
T1 construct: expressed in transfected cells; host or cells: A431
T1 sequence (Q9Y6L6 1-691): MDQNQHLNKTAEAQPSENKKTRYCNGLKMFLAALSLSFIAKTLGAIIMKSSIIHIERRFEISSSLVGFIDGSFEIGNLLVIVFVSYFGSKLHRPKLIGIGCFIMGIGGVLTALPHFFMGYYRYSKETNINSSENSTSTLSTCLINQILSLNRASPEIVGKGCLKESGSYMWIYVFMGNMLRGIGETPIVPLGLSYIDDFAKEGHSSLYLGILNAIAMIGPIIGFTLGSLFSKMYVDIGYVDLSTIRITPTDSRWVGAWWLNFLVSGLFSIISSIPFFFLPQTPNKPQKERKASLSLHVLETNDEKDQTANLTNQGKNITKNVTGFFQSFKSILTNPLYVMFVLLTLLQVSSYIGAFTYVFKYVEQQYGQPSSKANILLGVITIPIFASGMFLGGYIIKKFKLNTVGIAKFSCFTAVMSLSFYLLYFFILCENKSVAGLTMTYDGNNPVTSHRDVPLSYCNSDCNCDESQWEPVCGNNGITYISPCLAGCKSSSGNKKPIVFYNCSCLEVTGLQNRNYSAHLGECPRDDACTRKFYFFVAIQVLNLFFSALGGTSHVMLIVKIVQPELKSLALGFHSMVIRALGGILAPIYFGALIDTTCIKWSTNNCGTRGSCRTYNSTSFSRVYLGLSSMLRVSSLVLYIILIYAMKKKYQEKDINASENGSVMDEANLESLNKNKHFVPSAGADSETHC

[2] = biological target: T2, CYP2C9 (Homo sapiens, UniProt P11712); parameters: method as in our previous study; conditions: ref our previous study; cited from earlier work
T2 construct: purchased Merck
T2 sequence (P11712 whole entry): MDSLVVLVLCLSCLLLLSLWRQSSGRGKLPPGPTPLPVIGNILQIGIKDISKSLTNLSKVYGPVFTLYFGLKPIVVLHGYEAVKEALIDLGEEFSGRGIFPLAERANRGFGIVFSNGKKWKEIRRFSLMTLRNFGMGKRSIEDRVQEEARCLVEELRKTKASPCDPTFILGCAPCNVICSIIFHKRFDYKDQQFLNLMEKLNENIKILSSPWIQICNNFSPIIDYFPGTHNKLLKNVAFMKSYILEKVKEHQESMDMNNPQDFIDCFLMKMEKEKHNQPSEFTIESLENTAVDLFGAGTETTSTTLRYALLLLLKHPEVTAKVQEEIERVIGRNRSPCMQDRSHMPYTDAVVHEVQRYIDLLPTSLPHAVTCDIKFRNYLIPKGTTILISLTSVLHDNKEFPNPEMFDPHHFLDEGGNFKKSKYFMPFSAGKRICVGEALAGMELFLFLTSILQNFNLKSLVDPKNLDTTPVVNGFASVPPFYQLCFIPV

[3] = biological target: T3, OATP1B3 (Homo sapiens, UniProt Q9NPD5); parameters: method as in earlier report; conditions: same experimental model; ref earlier report; cited from earlier work
T3 construct: expressed in transfected cells; host or cells: A431
T3 sequence (Q9NPD5 1-702): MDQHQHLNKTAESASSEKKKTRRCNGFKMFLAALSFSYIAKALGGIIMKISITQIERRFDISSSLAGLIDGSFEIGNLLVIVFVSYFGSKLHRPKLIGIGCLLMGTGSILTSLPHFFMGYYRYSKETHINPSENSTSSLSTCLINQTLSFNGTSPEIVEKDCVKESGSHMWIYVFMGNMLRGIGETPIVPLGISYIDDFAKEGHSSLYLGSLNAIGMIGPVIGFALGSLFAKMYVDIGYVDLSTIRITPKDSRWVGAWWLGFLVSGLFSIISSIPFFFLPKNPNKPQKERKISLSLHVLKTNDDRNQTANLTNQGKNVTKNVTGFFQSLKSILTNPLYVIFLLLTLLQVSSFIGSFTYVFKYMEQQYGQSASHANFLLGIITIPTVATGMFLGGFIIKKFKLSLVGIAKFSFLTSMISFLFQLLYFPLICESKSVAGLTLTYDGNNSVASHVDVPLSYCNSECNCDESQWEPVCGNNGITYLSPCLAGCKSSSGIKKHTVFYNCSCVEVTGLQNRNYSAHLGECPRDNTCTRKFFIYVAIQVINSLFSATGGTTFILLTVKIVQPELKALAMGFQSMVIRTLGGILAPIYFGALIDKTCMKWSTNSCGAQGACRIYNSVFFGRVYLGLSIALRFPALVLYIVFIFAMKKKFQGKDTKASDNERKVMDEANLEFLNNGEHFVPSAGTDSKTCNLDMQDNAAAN

Q: Which results are given for `C[C@H]1CCCC(=O)CCC/C=C/c2cc(O)cc(O)c2C(=O)O1` [ZEN, Zearalenone]?
A: IC50 [1]: > 10 µM; IC50 [2]: 9.8 µM; IC50 [3]: 8.1 µM
